Measured values as given in patent US8604055B2, “Substituted benzylamino quinolines as cholesterol ester-transfer protein inhibitors” (Dr. Reddy's Laboratories Ltd., priority 2004, dated 2013).

Target: T1, Recombinant CETP enzyme (Homo sapiens, UniProt P11597)
T1 construct: purchased Cardiovascular Targets
T1 sequence (P11597 18-493): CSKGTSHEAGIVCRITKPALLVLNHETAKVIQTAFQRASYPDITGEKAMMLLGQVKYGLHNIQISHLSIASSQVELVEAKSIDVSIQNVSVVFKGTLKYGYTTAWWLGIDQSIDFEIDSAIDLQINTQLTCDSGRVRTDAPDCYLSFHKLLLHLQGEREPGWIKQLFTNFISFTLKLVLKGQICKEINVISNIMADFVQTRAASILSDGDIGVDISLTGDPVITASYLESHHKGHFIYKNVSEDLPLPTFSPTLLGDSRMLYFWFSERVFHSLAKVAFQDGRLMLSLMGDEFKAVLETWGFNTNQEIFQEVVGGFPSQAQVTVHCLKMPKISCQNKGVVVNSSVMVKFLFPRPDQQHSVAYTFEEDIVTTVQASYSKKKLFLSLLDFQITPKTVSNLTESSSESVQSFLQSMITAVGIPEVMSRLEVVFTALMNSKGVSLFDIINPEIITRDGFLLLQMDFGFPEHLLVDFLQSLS
Experiment: In vitro fluorescence-based CETP inhibition assay (BODIPY-CE transfer from donor to acceptor microemulsions)
Format: biochemical
Conditions: recombinant CETP 0.14 ng/μl; transfer of fluorescent cholesteryl ester monitored over 2 hours; vs DMSO controls
Method: An in vitro fluorescence-based assay to identify CETP inhibitors was developed from modifications of the protocols outlined in Bisgaier et al., J Lipid Res., 34(9): 1625-34 (1993) and Epps et al., Chem Phys Lipids., 77(1): 51-63 (1995). Acceptor and donor lipid microemulsions were prepared according to Bisgaier et al., 1993, except that the buffer was prepared with 0.67 ug/mL human HDL (Calbiochem). Donor microemulsions contained the fluorescent cholesteryl ester analog BODIPY-CE (Molecular Probes), characterized by excitation and emission maxima at 503 nm and 518 nm, respectively. The CETP-mediated transfer of fluorescent cholesteryl ester to acceptor particles was monitored over a 2-hour time period using the FAM filter set (excitation 492 nm, emission 516 nm) in an MX3000P fluorescent plate reader (Stratagene). Recombinant CETP enzyme (Cardiovascular Targets) was used at 0.14 ng/μl, final concentration, to achieve lipid transfer. CETP inhibition by compounds was compared to DMSO controlsand graphed as a percentage of the control CETP activity over 2 hours. The IC50 curves for CETP inhibition were generated from the activity profiles. Active compounds were also tested for CETP inhibition as above, but in the presence of 3% human serum albumin, fraction V (Calbiochem).

Question: Which IC50 does the source give for `Cc1nn(C)c2nc(N(C)CC3CCC3)c(CN(Cc3cc(C(F)(F)F)cc(C(F)(F)F)c3)c3nnn(C)n3)cc12` [Example 4, (5-{[(3,5-bis-trifluoromethyl-benzyl)-(2-methyl-2H-tetrazole-5-yl)-amino]-methyl}-1,3-dimethyl-1H-pyrazolo[3,4-b]pyridin-6-yl)-cyclobutylmethyl-methyl-amine] here?
Answer: Its IC50 is ≤ 1000 nM.

Question: With `CCN(CC1CCCC1)c1nc2ccccc2cc1CN(Cc1cc(C(F)(F)F)cc(C(F)(F)F)c1)c1ccccn1` [Example 69, (3-{[(3,5-bis-trifluoromethyl-benzyl)-pyridin-2-yl-amino]-methyl)-quinolin-2-yl)-cyclopentylmethyl-ethyl-amine] as the molecule, how does the IC50 read?
Answer: Its IC50 is ≤ 5000 nM.

Question: For `Cc1nn(C)c2nc(N(CC3CC3)CC3CC3)c(CN(Cc3cc(C(F)(F)F)cc(C(F)(F)F)c3)c3nnn(C)n3)cc12` [Example 2, (5-{[(3,5-bis-trifluoromethyl-benzyl)-(2-methyl-2H-tetrazole-5-yl)-amino]-methyl}-1,3-dimethyl-1H-pyrazolo[3,4-b]pyridin-6-yl)-bis-cyclopropylmethyl-amine], which IC50 is on record?
Answer: The IC50 was ≤ 1000 nM.

Question: With `Cc1cccc2cc(CN(Cc3cc(C(F)(F)F)cc(C(F)(F)F)c3)c3ccc(Br)cn3)c(N(CC3CC3)CC3CC3)nc12` [Example 111, (3-{[(3,5-bis-trifluoromethyl-benzyl)-(5-bromo-pyridin-2-yl)-amino]-methyl}-8-methyl-quinolin-2-yl)-bis-cyclopropylmethyl-amine] as the molecule, how does the IC50 read?
Answer: The IC50 was ≤ 1000 nM.

Question: `CCOC(=O)N(Cc1cc(C(F)(F)F)cc(C(F)(F)F)c1)Cc1cc2ccccc2nc1N(CC)CC1CCCCC1` [Example 42, (3,5-bis-trifluoromethyl-benzyl)-[2-(cyclohexylmethyl-ethyl-amino)-quinolin-3-ylmethyl]-carbamic acid ethyl ester] was tested. Which IC50 did it give?
Answer: Its IC50 is ≤ 5000 nM.

Question: For `CCN(c1nc2c(cc1CN(Cc1cc(C(F)(F)F)cc(C(F)(F)F)c1)c1nnn(C)n1)c(C)nn2C)C(C)C` [Example 7, (5-{[(3,5-bis-trifluoromethyl-benzyl)-(2-methyl-2H-tetrazole-5-yl)-amino]-methyl}-1,3-dimethyl-1H-pyrazolo[3,4-b]pyridin-6-yl)-ethyl-isopropyl-amine], which IC50 is on record?
Answer: Its IC50 is ≤ 1000 nM.

Question: With `CCN(CC1CCCC1)c1nc2ccccc2cc1CN(Cc1cc(C(F)(F)F)cc(C(F)(F)F)c1)c1nc(C)cs1` [Example 63] as the molecule, how does the IC50 read?
Answer: The IC50 was ≤ 5000 nM.

Question: `CCN(CC1CCC1)c1nc2c(cnn2CC2CC2)cc1CN(Cc1cc(C(F)(F)F)cc(C(F)(F)F)c1)c1nnn(C)n1` [Example 101, (5-{[(3,5-bis-trifluoromethyl-benzyl)-(2-methyl-2H-tetrazol-5-yl)-amino]methyl}-1-cyclopropylmethyl-1H-pyrazolo[3,4-b]pyridin-6-yl)-cyclobutylmethyl-ethyl-amine] was tested. Which IC50 did it give?
Answer: The IC50 was ≤ 1000 nM.

Question: For `CCN(CC1CCCC1)c1nc2onc(C)c2cc1CN(Cc1cc(C(F)(F)F)cc(C(F)(F)F)c1)C(=O)OC` [Example 32, (3,5-bis-trifluoromethyl-benzyl)-[6-(cyclopentylmethyl-ethyl-amino)-3-methyl-isoxazolo[5,4-b]pyridine-5-ylmethyl}-carbamic acid methyl ester], which IC50 is on record?
Answer: The IC50 was ≤ 1000 nM.

Question: With `CCN(CC1CCCC1)c1nc2ccccc2cc1CN(Cc1cc(C(F)(F)F)cc(C(F)(F)F)c1)c1ncccn1` [Example 66, (3-{[(3,5-bis-trifluoromethyl-benzyl)-pyrimidin-2-yl-amino]-methyl}-quinolin-2-yl)-cyclopentylmethyl-ethyl-amine] as the molecule, how does the IC50 read?
Answer: The IC50 was ≤ 5000 nM.

Question: With `CCN(CC1CCCC1)c1nc2ccccc2cc1CN(Cc1cc(C(F)(F)F)cc(C(F)(F)F)c1)C(=O)OC` [Example 35, (3,5-bis-trifluoromethyl-benzyl)-[2-(cyclopentylmethyl-ethyl-amino)-quinolin-3-ylmethyl]-carbamic acid methyl ester] as the molecule, how does the IC50 read?
Answer: Its IC50 is ≤ 5000 nM.

Question: Which IC50 does the source give for `CCN(CC1CCCC1)c1nc2c(cc1CN(Cc1cc(C(F)(F)F)cc(C(F)(F)F)c1)c1nnn(C)n1)CCCC2` [Example 77] here?
Answer: The IC50 was ≤ 1000 nM.

Question: `Cc1nn(C)c2nc(N(CC3CC3)C(=O)C3CC3)c(CN(Cc3cc(C(F)(F)F)cc(C(F)(F)F)c3)c3nnn(C)n3)cc12` [Example 27, cyclopropanecarboxylic acid (5-{[(3,5-bis-trifluoromethyl-benzyl)-(2-methyl-2H-tetrazol-5-yl)-amino]-methyl}-1,3-dimethyl-1H-pyrazolo[3,4-b]pyridin-6-yl)-cyclopropylmethyl-amide] was tested. Which IC50 did it give?
Answer: The IC50 was ≤ 1000 nM.

Question: `CCOC(=O)NC(=S)N(Cc1cc(C(F)(F)F)cc(C(F)(F)F)c1)Cc1cc2ccccc2nc1N(CC)CC1CCCC1` [Example 49, 3-ethoxycarbonyl-1-(3,5-Bis-trifluoromethyl-benzyl)-1-[2-(cyclopentylmethyl-ethyl-amino)-quinolin-3-ylmethyl]-thiourea] was tested. Which IC50 did it give?
Answer: The IC50 was ≤ 5000 nM.

Question: For `Cn1nnc(N(Cc2cc(C(F)(F)F)cc(C(F)(F)F)c2)Cc2cc3cnn(C)c3nc2N(CC2CC2)CC2CC2)n1` [Example 13, (5-{[(3,5-bis-trifluoromethyl-benzyl)-(2-methyl-2H-tetrazol-5-yl)-amino]-methyl}-1-methyl-1H-pyrazolo[3,4-b]pyridin-6-yl)-bis-cyclopropylmethyl-amine], which IC50 is on record?
Answer: Its IC50 is ≤ 1000 nM.

Question: For `Cc1cccc2cc(CN(Cc3cc(C(F)(F)F)cc(C(F)(F)F)c3)c3nnn(C(C)C)n3)c(N(CC3CC3)CC3CC3)nc12` [Example 85], which IC50 is on record?
Answer: Its IC50 is ≤ 1000 nM.

Question: How did the IC50 turn out when `CCN(CC1CCCC1)c1nc2c(cc1CN(Cc1cc(C(F)(F)F)cc(C(F)(F)F)c1)c1nnc(C)o1)CCCC2` [Example 78, (3-{[3,5-bis-trifluoromethyl-benzyl)-(5-methyl-[1,3,4oxadiazol-2-yl)-amino]-methyl}-5,6,7,8-tetrahydroquinoline-2-yl)-cyclopentylmethyl-ethyl-amine] was run?
Answer: Its IC50 is ≤ 1000 nM.

Question: How did the IC50 turn out when `CCOC(=O)c1c(CN(Cc2cc(C(F)(F)F)cc(C(F)(F)F)c2)c2nnn(C)n2)c2ccccc2n1C(=O)C1CCCC1` [Example 127, 3-{[(3,5-bis-trifluoromethyl-benzyl)-(2-methyl-2H-tetrazol-5-yl)-amino]-methyl}-1-cyclopentanecarbonyl-1H-indole-2-carboxylic acid ethyl ester] was run?
Answer: The IC50 was ≤ 1000 nM.

Question: With `Cc1cccc2cc(CN(Cc3cc(C(F)(F)F)cc(C(F)(F)F)c3)c3ncnc(Cl)n3)c(N(CC3CC3)CC3CC3)nc12` [Example 117, (3-{[(3,5-bis-trifluoromethyl-benzyl)-(4-chloro-[1,3,5]triazin-2-yl)-amino]-methyl}-8-methyl-quinolin-2-yl)-bis-cyclopropylmethyl-amine] as the molecule, how does the IC50 read?
Answer: The IC50 was ≤ 1000 nM.

Question: Which IC50 does the source give for `CCN(CC1CCCC1)c1nc2c(cc1CN(Cc1cc(C(F)(F)F)cc(C(F)(F)F)c1)c1nnn(C)n1)CCC2` [Example 76, (3-{[(3,5-bis-trifluoromethyl-benzyl)-(2-methyl-2H-tetrazole-5-yl)-amino]-methyl}-,6,7-dihydro-5H-[1]pyridine-2-yl)-cyclopentylmethyl-ethyl-amine] here?
Answer: The IC50 was ≤ 1000 nM.

Question: For `CCN(CC1CCC1)c1nc2c(cc1CN(Cc1cc(C(F)(F)F)cc(C(F)(F)F)c1)c1nnn(C)n1)c(C)nn2C` [Example 1, (5-{[(3,5-bis-trifluoromethyl-benzyl)-(2-methyl-2H-tetrazole-5-yl)-amino]-methyl}-1,3-dimethyl-1H-pyrazolo[3,4-b]pyridin-6-yl)-cyclobutylmethyl-ethyl-amine], which IC50 is on record?
Answer: The IC50 was ≤ 1000 nM.

Question: How did the IC50 turn out when `CCN(CC1CCCC1)c1nc2ccccc2cc1CN(Cc1cc(C(F)(F)F)cc(C(F)(F)F)c1)Cc1nnnn1C` [Example 71, (3-{[(3,5-bis-trifluoromethyl-benzyl)-(1-methyl-1H-tetrazol-5-ylmethyl)-amino]-methyl}-quinolin-2-yl)-cyclopentylmethyl-ethyl-amine] was run?
Answer: The IC50 was ≤ 5000 nM.

Question: For `CCN(CC1CCCC1)c1nc2c(cc1CN(Cc1cc(Cl)cc(Cl)c1)c1nnn(C)n1)c(C)nn2C` [Example 19, cyclopentylmethyl-(1,3-dimethyl-5-{[(2-methyl-2H-tetrazol-5-yl)-(3,5-dichlorobenzyl)-amino]-methyl}-1H-pyrazolo[3,4-b]pyridin-6-yl)-ethyl-amine], which IC50 is on record?
Answer: Its IC50 is ≤ 1000 nM.

Question: With `Cc1cc(N(Cc2cc(C(F)(F)F)cc(C(F)(F)F)c2)Cc2cc3c(C)nn(C)c3nc2N(CC2CC2)CC2CC2)no1` [Example 11, (5-{[(3,5-bis-trifluoromethyl-benzyl)-(5-methyl-isoxazol-3-yl)-amino]-methyl}-1,3-dimethyl-1H-pyrazolo[3,4-b]pyridin-6-yl)-bis-cyclopropylmethyl-amine] as the molecule, how does the IC50 read?
Answer: The IC50 was ≤ 1000 nM.

Question: Which IC50 does the source give for `CCn1ncc2cc(CN(Cc3cc(C(F)(F)F)cc(C(F)(F)F)c3)c3nnn(C)n3)c(N(CC3CC3)CC3CC3)nc21` [Example 14, (5-{[(3,5-bis-trifluoromethyl-benzyl)-(2-methyl-2H-tetrazol-5-yl)-amino]-methyl}-1-ethyl-1H-pyrazolo[3,4-b]pyridin-6-yl)-bis-cyclopropylmethyl-amine] here?
Answer: The IC50 was ≤ 1000 nM.
